Reference: ChEMBL document CHEMBL3352739, “Comparative in vivo evaluation of polyalkoxy substituted 4H-chromenes and oxa-podophyllotoxins as microtubule destabilizing agents in the phenotypic sea urchin embryo assay” (2014)

Experiments:
[1] = Growth inhibition of human H1299 cells after 48 hrs by sulforhodamine B assay; format: functional; details: NCI-H1299, 48 h
[2] = test system: T47D; test: Growth inhibition of human T47D cells after 48 hrs by sulforhodamine B assay; format: functional
[3] = test system: ZR-75-1; test: Growth inhibition of human ZR-75-1 cells after 48 hrs by sulforhodamine B assay; format: functional; details: ZR-75-1, 48 h
[4] = test system: Paracentrotus lividus; test: Antimitotic microtubule destabilizing activity in Paracentrotus lividus L embryos assessed as induction of cleavage alteration
[5] = test system: Paracentrotus lividus; test: Antimitotic microtubule destabilizing activity in Paracentrotus lividus L embryos assessed as induction of embryo spinning
[6] = test system: Paracentrotus lividus; test: Antimitotic microtubule destabilizing activity in Paracentrotus lividus L embryos assessed as induction of cleavage arrest
[7] = test system: SW-620; test: Growth inhibition of human SW620 cells after 48 hrs by sulforhodamine B assay; format: functional; details: SW-620, 48 h
[8] = test system: U-251; test: Growth inhibition of human U251 cells after 48 hrs by sulforhodamine B assay; format: functional; details: U-251, 48 h
[9] = test system: NCI-H460; test: Growth inhibition of human NCI-H460 cells after 48 hrs by sulforhodamine B assay; format: functional; details: NCI-H460, 48 h
[10] = test system: HOP-62; test: Growth inhibition of human HOP62 cells after 48 hrs by sulforhodamine B assay; format: functional; details: HOP-62, 48 h
[11] = Growth inhibition of human HCT15 cells after 48 hrs by sulforhodamine B assay; format: functional; details: HCT-15, 48 h
[12] = test system: SN12C; test: Growth inhibition of human SN12C cells after 48 hrs by sulforhodamine B assay; format: functional
[13] = test system: A549; test: Growth inhibition of human A549/ATCC cells after 48 hrs by sulforhodamine B assay; format: functional; details: A549, 48 h
[14] = Growth inhibition of human SF295 cells after 48 hrs by sulforhodamine B assay; format: functional; details: SF-295, 48 h
[15] = Growth inhibition of human NCI-ADR-RES cells after 48 hrs by sulforhodamine B assay; format: functional
[16] = Growth inhibition of human BT549 cells after 48 hrs by sulforhodamine B assay; format: functional; details: BT-549, 48 h
[17] = test system: NCI-H322M; test: Growth inhibition of human NCI-H322M cells after 48 hrs by sulforhodamine B assay; format: functional
[18] = test system: MDA-MB-435; test: Growth inhibition of human MDA-MB-435 cells after 48 hrs by sulforhodamine B assay; format: functional; details: MDA-MB-435, 48 h
[19] = Growth inhibition of human HCC2998 cells after 48 hrs by sulforhodamine B assay; format: functional; details: HCC 2998, 48 h
[20] = Growth inhibition of human Hs 578T cells after 48 hrs by sulforhodamine B assay; format: functional
[21] = Growth inhibition of human OVCAR5 cells after 48 hrs by sulforhodamine B assay; format: functional; details: OVCAR-5, 48 h
[22] = test system: K562; test: Growth inhibition of human K562 cells after 48 hrs by sulforhodamine B assay; format: functional; details: K562, 48 h
[23] = Growth inhibition of human RPMI8226 cells after 48 hrs by sulforhodamine B assay; format: functional; details: RPMI-8226, 48 h
[24] = test system: 786-0; test: Growth inhibition of human 786-0 cells after 48 hrs by sulforhodamine B assay; format: functional; details: 786-0, 48 h
[25] = Growth inhibition of human HCT116 cells after 48 hrs by sulforhodamine B assay; format: functional; details: HCT-116, 48 h
[26] = Growth inhibition of human OVCAR8 cells after 48 hrs by sulforhodamine B assay; format: functional; details: OVCAR-8, 48 h
[27] = Growth inhibition of human SF539 cells after 48 hrs by sulforhodamine B assay; format: functional; details: SF-539, 48 h
[28] = test system: KM12; test: Growth inhibition of human KM12 cells after 48 hrs by sulforhodamine B assay; format: functional; details: KM12, 48 h
[29] = test system: SF-268; test: Growth inhibition of human SF268 cells after 48 hrs by sulforhodamine B assay; format: functional; details: SF-268, 48 h
[30] = Growth inhibition of human MOLT4 cells after 48 hrs by sulforhodamine B assay; format: functional; details: MOLT-4, 48 h
[31] = Growth inhibition of human LOXIMVI cells after 48 hrs by sulforhodamine B assay; format: functional; details: LOX IMVI
[32] = Growth inhibition of human UACC62 cells after 48 hrs by sulforhodamine B assay; format: functional; details: UACC-62, 48 h
[33] = test system: HL-60(TB); test: Growth inhibition of human HL-60(TB) cells after 48 hrs by sulforhodamine B assay; format: functional; details: HL-60, 48 h
[34] = test system: TK-10; test: Growth inhibition of human TK10 cells after 48 hrs by sulforhodamine B assay; format: functional; details: TK-10, 48 h
[35] = Growth inhibition of human OVCAR3 cells after 48 hrs by sulforhodamine B assay; format: functional; details: OVCAR-3, 48 h
[36] = test system: DU-145; test: Growth inhibition of human DU145 cells after 48 hrs by sulforhodamine B assay; format: functional; details: DU-145, 48 h
[37] = test system: SK-MEL-2; test: Growth inhibition of human SK-MEL-2 cells after 48 hrs by sulforhodamine B assay; format: functional; details: SK-MEL-2, 48 h
[38] = test system: IGROV-1; test: Growth inhibition of human IGROV1 cells after 48 hrs by sulforhodamine B assay; format: functional; details: IGROV-1, 48 h
[39] = Growth inhibition of human PC3 cells after 48 hrs by sulforhodamine B assay; format: functional; details: PC-3, 48 h
[40] = test system: CAKI-1; test: Growth inhibition of human CAKI-1 cells after 48 hrs by sulforhodamine B assay; format: functional; details: CAKI-1, 48 h
[41] = test system: SNB-75; test: Growth inhibition of human SNB75 cells after 48 hrs by sulforhodamine B assay; format: functional; details: SNB-75, 48 h
[42] = test system: MDA-MB-468; test: Growth inhibition of human MDA-MB-468 cells after 48 hrs by sulforhodamine B assay; format: functional; details: MDA-MB-468, 48 h
[43] = Growth inhibition of human OVCAR4 cells after 48 hrs by sulforhodamine B assay; format: functional; details: OVCAR-4, 48 h
[44] = Growth inhibition of human EKVX cells after 48 hrs by sulforhodamine B assay; format: functional
[45] = test system: MDA-MB-231; test: Growth inhibition of human MDA-MB-231 cells after 48 hrs by sulforhodamine B assay; format: functional; details: MDA-MB-231, 48 h
[46] = test system: HT-29; test: Growth inhibition of human HT-29 cells after 48 hrs by sulforhodamine B assay; format: functional; details: HT-29, 48 h
[47] = test system: M14; test: Growth inhibition of human M14 cells after 48 hrs by sulforhodamine B assay; format: functional; details: M14, 48 h
[48] = test system: CCRF-CEM; test: Growth inhibition of human CCRF-CEM cells after 48 hrs by sulforhodamine B assay; format: functional
[49] = test system: NCI-H226; test: Growth inhibition of human NCI-H226 cells after 48 hrs by sulforhodamine B assay; format: functional; details: NCI-H226, 48 h
[50] = test system: NCI-H522; test: Growth inhibition of human NCI-H522 cells after 48 hrs by sulforhodamine B assay; format: functional; details: NCI-H522, 48 h
[51] = test system: SK-MEL-28; test: Growth inhibition of human SK-MEL-28 cells after 48 hrs by sulforhodamine B assay; format: functional; details: SK-MEL-28, 48 h
[52] = Growth inhibition of human UO31 cells after 48 hrs by sulforhodamine B assay; format: functional; details: UO-31, 48 h
[53] = test system: ACHN; test: Growth inhibition of human ACHN cells after 48 hrs by sulforhodamine B assay; format: functional
[54] = test system: SK-OV-3; test: Growth inhibition of human SKOV3 cells after 48 hrs by sulforhodamine B assay; format: functional; details: SK-OV-3, 48 h
[55] = test system: MCF7; test: Growth inhibition of human MCF7 cells after 48 hrs by sulforhodamine B assay; format: functional; details: MCF7, 48 h
[56] = Cytotoxicity against human NCI60 cells; format: functional
[57] = Growth inhibition of human COLO205 cells after 48 hrs by sulforhodamine B assay; format: functional; details: COLO 205, 48 h
[58] = test system: NCI-H23; test: Growth inhibition of human NCI-H23 cells after 48 hrs by sulforhodamine B assay; format: functional; details: NCI-H23, 48 h
[59] = test system: SNB-19; test: Growth inhibition of human SNB19 cells after 48 hrs by sulforhodamine B assay; format: functional; details: SNB-19, 48 h
[60] = test system: SR; test: Growth inhibition of human SR cells after 48 hrs by sulforhodamine B assay; format: functional
[61] = test system: A498; test: Growth inhibition of human A498 cells after 48 hrs by sulforhodamine B assay; format: functional; details: A498, 48 h
[62] = Growth inhibition of human RXF393 cells after 48 hrs by sulforhodamine B assay; format: functional; details: RXF 393, 48 h
[63] = test system: SK-MEL-5; test: Growth inhibition of human SK-MEL-5 cells after 48 hrs by sulforhodamine B assay; format: functional; details: SK-MEL-5, 48 h
[64] = Growth inhibition of human HOP92 cells after 48 hrs by sulforhodamine B assay; format: functional; details: HOP-92, 48 h

SMILES: COc1cc(OC)cc(C2C(C#N)=C(N)Oc3cc(OC)ccc32)c1 (configuration not stated)
- GI50 [1]: 32 nM
- GI50 [2]: 14 nM
- GI50 [3]: 9 nM
- EC [4]: 0.0005 µM
- EC [5]: 0.02 µM
- EC [6]: 0.005 µM

SMILES: COc1cc(C2C(C#N)=C(N)Oc3cc(O)ccc32)cc(OC)c1OC (configuration not stated)
- GI50 [7]: 347 nM
- GI50 [8]: 349 nM
- GI50 [9]: 374 nM
- GI50 [10]: 796 nM
- GI50 [11]: 513 nM
- GI50 [12]: 790 nM
- GI50 [13]: 638 nM
- GI50 [14]: 323 nM
- GI50 [15]: 2320 nM
- GI50 [16]: 386 nM
- GI50 [17]: 783 nM
- GI50 [18]: 136 nM
- GI50 [19]: 975 nM
- GI50 [20]: 463 nM
- GI50 [21]: 4520 nM
- GI50 [22]: 460 nM
- GI50 [23]: 691 nM
- GI50 [24]: 605 nM
- GI50 [25]: 453 nM
- GI50 [26]: 836 nM
- GI50 [27]: 347 nM
- GI50 [28]: 451 nM
- GI50 [29]: 14500 nM
- GI50 [30]: 652 nM
- GI50 [31]: 523 nM
- GI50 [32]: 358 nM
- GI50 [33]: 327 nM
- GI50 [34]: 9830 nM
- GI50 [35]: 338 nM
- EC [4]: 4 µM
- GI50 [36]: 637 nM
- GI50 [37]: 539 nM
- GI50 [38]: 2840 nM
- GI50 [39]: 462 nM
- EC [5]: > 4 µM
- GI50 [40]: 885 nM
- GI50 [41]: 271 nM
- GI50 [42]: 250 nM
- GI50 [43]: 3490 nM
- GI50 [44]: 6490 nM
- GI50 [45]: 927 nM
- GI50 [46]: 392 nM
- GI50 [47]: 375 nM
- GI50 [48]: 375 nM
- GI50 [49]: 31200 nM
- GI50 [50]: 255 nM
- GI50 [51]: 934 nM
- GI50 [52]: 2800 nM
- GI50 [53]: 922 nM
- GI50 [54]: 560 nM
- GI50 [55]: 324 nM
- GI50 [56]: 692 nM
- GI50 [57]: 852 nM
- GI50 [58]: 813 nM
- GI50 [59]: 811 nM
- GI50 [60]: 371 nM
- GI50 [61]: 161 nM
- EC [6]: > 4 µM
- GI50 [62]: 287 nM
- GI50 [63]: 305 nM
- GI50 [64]: 301 nM
